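Five concentrations, 48 hours, 96-well plates. Abbreviation: GI50, concentration required for 50% inhibition of growth.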 Activity calls are given as the source filed them. Rule as the data show it: active = GI50 up to about 1.1 µM and inactive = higher.
How the values were obtained:
Assay in all cases: NCI anticancer screen, dose series, 48 h
CAKI-1 = system: CAKI-1
HCT-15 = system: HCT-15
IGROV-1 = system: IGROV-1
K562 = system: K562
LOX IMVI = system: LOX IMVI
MCF7 = system: MCF7
MDA-MB-231 = system: MDA-MB-231
Malme-3M = system: Malme-3M
OVCAR-4 = system: OVCAR-4
RPMI-8226 = system: RPMI-8226
SF-539 = system: SF-539
SK-MEL-2 = system: SK-MEL-2
SK-MEL-5 = system: SK-MEL-5
SK-OV-3 = system: SK-OV-3
SW-620 = system: SW-620
TK-10 = system: TK-10
U-251 = system: U-251
UACC-257 = system: UACC-257
RXF 393 = system: RXF 393
SNB-75 = system: SNB-75

Q: What does the source list for `O=C(O[C@H](/C=C/c1ccccc1)P1(=O)N(Cc2ccccc2)[C@@H]2CCCC[C@H]2N1Cc1ccccc1)c1ccccc1`?
A: GI50 (CAKI-1): 2.16 µM (inactive); GI50 (HCT-15): 2.91 µM; GI50 (IGROV-1): 3.37 µM (inactive); GI50 (K562): 3.24 µM (inactive); GI50 (LOX IMVI): 3.41 µM (inactive); GI50 (MCF7): 3.63 µM (inactive); GI50 (MDA-MB-231): 3.16 µM (inactive); GI50 (Malme-3M): 2.49 µM (inactive); GI50 (OVCAR-4): 1.79 µM (inactive); GI50 (RPMI-8226): 2.33 µM (inactive); GI50 (SF-539): 2.98 µM (inactive); GI50 (SK-MEL-2): 2.27 µM (inactive); GI50 (SK-MEL-5): 1.86 µM (inactive); GI50 (SK-OV-3): 5.41 µM (inactive); GI50 (SW-620): 3.57 µM (inactive); GI50 (TK-10): 38.9 µM (inactive); GI50 (U-251): 3.26 µM (inactive); GI50 (UACC-257): 7.87 µM (inactive)

Q: Which results are given for `O=C(O)c1ccccc1Sc1ccc(C=C2NC(=S)N(c3ccccc3)C2=O)s1`?
A: GI50 (CAKI-1): 44.4 µM (inactive); GI50 (HCT-15): > 100 µM; GI50 (IGROV-1): > 100 µM (inactive); GI50 (K562): 31.6 µM (inactive); GI50 (LOX IMVI): > 100 µM (inactive); GI50 (MCF7): > 100 µM (inactive); GI50 (MDA-MB-231): > 100 µM (inactive); GI50 (Malme-3M): > 100 µM (inactive); GI50 (OVCAR-4): 24.9 µM (inactive); GI50 (RPMI-8226): 41 µM (inactive); GI50 (RXF 393): > 100 µM (inactive); GI50 (SK-MEL-2): 22.2 µM (inactive); GI50 (SK-MEL-5): > 100 µM (inactive); GI50 (SNB-75): > 100 µM (inactive); GI50 (SW-620): > 100 µM (inactive); GI50 (TK-10): 76.2 µM (inactive); GI50 (U-251): > 100 µM (inactive); GI50 (UACC-257): > 100 µM (inactive)

Q: For `O=S(=O)(N=[Se](=O)(c1ccccc1)c1ccccc1)c1ccccc1`, which GI50 (CAKI-1) is on record?
A: > 100 µM (inactive)

Q: What about the GI50 (HCT-15) of the same compound?
A: > 100 µM

Q: What about the GI50 (IGROV-1) of the same compound?
A: 28 µM (inactive)

Q: What about the GI50 (K562) of the same compound?
A: > 100 µM (inactive)

Q: And the GI50 (LOX IMVI)?
A: > 100 µM (inactive)

Q: What about the GI50 (MCF7) of the same compound?
A: 88.3 µM (inactive)

Q: What about the GI50 (MDA-MB-231) of the same compound?
A: > 100 µM (inactive)

Q: And the GI50 (OVCAR-4)?
A: > 100 µM (inactive)

Q: And the GI50 (RPMI-8226)?
A: > 100 µM (inactive)

Q: What about the GI50 (SF-539) of the same compound?
A: > 100 µM (inactive)

Q: And the GI50 (SK-MEL-2)?
A: 48.3 µM (inactive)

Q: What about the GI50 (SK-MEL-5) of the same compound?
A: > 100 µM (inactive)

Q: And the GI50 (SK-OV-3)?
A: > 100 µM (inactive)

Q: What about the GI50 (SNB-75) of the same compound?
A: > 100 µM (inactive)

Q: What about the GI50 (SW-620) of the same compound?
A: > 100 µM (inactive)

Q: What about the GI50 (TK-10) of the same compound?
A: > 100 µM (inactive)

Q: What about the GI50 (U-251) of the same compound?
A: > 100 µM (inactive)

Q: With `C[C@H](CCC(=O)NN)[C@H]1CC[C@H]2[C@@H]3CC[C@@H]4C[C@H](O)CC[C@]4(C)[C@H]3CC[C@]12C` as the compound, how does the GI50 (CAKI-1) read?
A: 46.3 µM (inactive)

Q: What about the GI50 (HCT-15) of the same compound?
A: 39.7 µM

Q: And the GI50 (IGROV-1)?
A: 83.4 µM (inactive)

Q: What about the GI50 (K562) of the same compound?
A: 14.7 µM (inactive)

Q: What about the GI50 (LOX IMVI) of the same compound?
A: 31.6 µM (inactive)

Q: And the GI50 (MCF7)?
A: 31.7 µM (inactive)

Q: And the GI50 (MDA-MB-231)?
A: 40.8 µM (inactive)

Q: And the GI50 (Malme-3M)?
A: 52.1 µM (inactive)

Q: What about the GI50 (OVCAR-4) of the same compound?
A: > 67.1 µM (inactive)

Q: And the GI50 (RPMI-8226)?
A: 20.7 µM (inactive)

Q: What about the GI50 (RXF 393) of the same compound?
A: 21.4 µM (inactive)

Q: And the GI50 (SF-539)?
A: 84.1 µM (inactive)

Q: And the GI50 (SK-MEL-2)?
A: > 88.5 µM (inactive)

Q: What about the GI50 (SK-MEL-5) of the same compound?
A: 23.4 µM (inactive)

Q: And the GI50 (SK-OV-3)?
A: > 100 µM (inactive)

Q: What about the GI50 (SW-620) of the same compound?
A: 71.8 µM (inactive)

Q: And the GI50 (TK-10)?
A: 38.3 µM (inactive)

Q: And the GI50 (U-251)?
A: > 73.5 µM (inactive)

Q: And the GI50 (UACC-257)?
A: 61.7 µM (inactive)

Q: What does the source list for `CC(C)(C)OC(=O)C1C(=O)NC(=O)CC1C(COCc1ccccc1)OCc1ccccc1` (stereo not drawn)?
A: GI50 (CAKI-1): 50.4 µM (inactive); GI50 (HCT-15): 21.6 µM; GI50 (IGROV-1): 22.9 µM (inactive); GI50 (K562): 30.1 µM (inactive); GI50 (LOX IMVI): 19.2 µM (inactive); GI50 (MCF7): 19.9 µM (inactive); GI50 (MDA-MB-231): 17.2 µM (inactive); GI50 (Malme-3M): 19.8 µM (inactive); GI50 (RPMI-8226): 20 µM (inactive); GI50 (SF-539): 21.6 µM (inactive); GI50 (SK-MEL-5): 17.3 µM (inactive); GI50 (SW-620): 25.4 µM (inactive); GI50 (TK-10): 35 µM (inactive); GI50 (U-251): 20.5 µM (inactive); GI50 (UACC-257): 20.7 µM (inactive)

Q: `Clc1ccc(CCN[C@H]2CCCC[C@H]2N2CCCC2)cc1Cl` was tested. Which GI50 (CAKI-1) did it give?
A: 27.4 µM (inactive)

Q: What about the GI50 (HCT-15) of the same compound?
A: 9.59 µM

Q: What about the GI50 (IGROV-1) of the same compound?
A: 16.8 µM (inactive)

Q: And the GI50 (K562)?
A: 24.2 µM (inactive)

Q: What about the GI50 (LOX IMVI) of the same compound?
A: 16 µM (inactive)

Q: What about the GI50 (MCF7) of the same compound?
A: 16.1 µM (inactive)

Q: And the GI50 (MDA-MB-231)?
A: 25.6 µM (inactive)

Q: What about the GI50 (Malme-3M) of the same compound?
A: 15.9 µM (inactive)

Q: What about the GI50 (OVCAR-4) of the same compound?
A: 21.5 µM (inactive)

Q: What about the GI50 (RPMI-8226) of the same compound?
A: 25.2 µM (inactive)

Q: What about the GI50 (SF-539) of the same compound?
A: 28.4 µM (inactive)

Q: And the GI50 (SK-MEL-2)?
A: 20.8 µM (inactive)

Q: And the GI50 (SK-MEL-5)?
A: 14.6 µM (inactive)

Q: What about the GI50 (SK-OV-3) of the same compound?
A: 22.8 µM (inactive)

Q: What about the GI50 (SW-620) of the same compound?
A: 34 µM (inactive)

Q: What about the GI50 (TK-10) of the same compound?
A: 7.19 µM (inactive)

Q: What about the GI50 (U-251) of the same compound?
A: 43.7 µM (inactive)

Q: What about the GI50 (UACC-257) of the same compound?
A: 12 µM (inactive)

Q: How did the GI50 (CAKI-1) turn out when `COC1CCC(O)C(/C=C/[N+](=O)[O-])C1` (stereo not drawn) was run?
A: 16.2 µM (inactive)

Q: And the GI50 (HCT-15)?
A: 1.82 µM

Q: What about the GI50 (IGROV-1) of the same compound?
A: 1.66 µM (inactive)

Q: And the GI50 (K562)?
A: 3.03 µM (inactive)

Q: And the GI50 (LOX IMVI)?
A: 1.54 µM (inactive)

Q: What about the GI50 (MCF7) of the same compound?
A: 2.88 µM (inactive)

Q: What about the GI50 (MDA-MB-231) of the same compound?
A: 4.82 µM (inactive)

Q: What about the GI50 (OVCAR-4) of the same compound?
A: 14.8 µM (inactive)

Q: What about the GI50 (RPMI-8226) of the same compound?
A: 1.55 µM (inactive)

Q: What about the GI50 (RXF 393) of the same compound?
A: 1.42 µM (inactive)

Q: And the GI50 (SF-539)?
A: 4.4 µM (inactive)

Q: What about the GI50 (SK-MEL-2) of the same compound?
A: 10.2 µM (inactive)

Q: And the GI50 (SK-MEL-5)?
A: 4.06 µM (inactive)

Q: And the GI50 (SK-OV-3)?
A: 10.1 µM (inactive)

Q: And the GI50 (SNB-75)?
A: 9.68 µM (inactive)

Q: And the GI50 (SW-620)?
A: 3.33 µM (inactive)

Q: And the GI50 (TK-10)?
A: 4.72 µM (inactive)

Q: And the GI50 (U-251)?
A: 2.19 µM (inactive)

Q: And the GI50 (UACC-257)?
A: 2.01 µM (inactive)

Q: Which GI50 (CAKI-1) does the source give for `COc1cc2c(cc1OC)C13CCN4CC5=CCOC6CC(=O)N2C1C6C5CC43O` (stereo not drawn) here?
A: > 100 µM (inactive)

Q: What about the GI50 (HCT-15) of the same compound?
A: > 100 µM

Q: What about the GI50 (IGROV-1) of the same compound?
A: > 100 µM (inactive)

Q: And the GI50 (K562)?
A: > 100 µM (inactive)

Q: What about the GI50 (LOX IMVI) of the same compound?
A: > 100 µM (inactive)

Q: And the GI50 (MCF7)?
A: > 100 µM (inactive)

Q: And the GI50 (MDA-MB-231)?
A: > 100 µM (inactive)

Q: And the GI50 (Malme-3M)?
A: > 100 µM (inactive)

Q: What about the GI50 (OVCAR-4) of the same compound?
A: > 100 µM (inactive)

Q: And the GI50 (RPMI-8226)?
A: > 100 µM (inactive)

Q: And the GI50 (SF-539)?
A: > 100 µM (inactive)

Q: And the GI50 (SK-MEL-2)?
A: > 100 µM (inactive)

Q: And the GI50 (SK-MEL-5)?
A: > 100 µM (inactive)

Q: And the GI50 (SK-OV-3)?
A: > 100 µM (inactive)

Q: And the GI50 (SNB-75)?
A: > 100 µM (inactive)

Q: What about the GI50 (SW-620) of the same compound?
A: > 100 µM (inactive)

Q: What about the GI50 (TK-10) of the same compound?
A: > 100 µM (inactive)

Q: What about the GI50 (U-251) of the same compound?
A: > 100 µM (inactive)

Q: What about the GI50 (UACC-257) of the same compound?
A: > 100 µM (inactive)
